Assay results taken from ChEMBL document CHEMBL1275577, “Study of the in vitro activities of rifaximin and comparator agents against 536 anaerobic intestinal bacteria from the perspective of potential utility in pathology involving bowel flora” (Antimicrob Agents Chemother, 2009).
In brackets after ≈: the same amount, converted by molar mass.

Experiments:
[1] = tested on: Peptoniphilus asaccharolyticus; assay: Antimicrobial activity against Peptoniphilus asaccharolyticus by Wadsworth agar dilution method; type: functional
Bifidobacterium dentium = assay: Antimicrobial activity against Bifidobacterium dentium by Wadsworth agar dilution method; type: functional
Clostridium septicum = assay: Antimicrobial activity against Clostridium septicum by Wadsworth agar dilution method; type: functional
[2] = Antimicrobial activity against Bifidobacterium infantis by Wadsworth agar dilution method; type: functional, Bifidobacterium longum subsp. infantis; conditions: Bifidobacterium longum
Clostridium hathewayi = assay: Antimicrobial activity against Clostridium hathewayi by Wadsworth agar dilution method; type: functional; conditions: Hungatella hathewayi
[3] = tested on: Lacticaseibacillus rhamnosus; assay: Antimicrobial activity against Lactobacillus rhamnosus by Wadsworth agar dilution method; type: functional
[4] = tested on: Desulfovibrio fairfieldensis; assay: Antimicrobial activity against Desulfovibrio fairfieldensis by Wadsworth agar dilution method; type: functional
Bacteroides ovatus = assay: Antimicrobial activity against Bacteroides ovatus by Wadsworth agar dilution method; type: functional
Eubacterium biforme = assay: Antimicrobial activity against Eubacterium biforme by Wadsworth agar dilution method; type: functional; conditions: Holdemanella biformis
Parvimonas micra = assay: Antimicrobial activity against Peptostreptococcus micros by Wadsworth agar dilution method; type: functional
Holdemania filiformis = assay: Antimicrobial activity against Holdemania filiformis by Wadsworth agar dilution method; type: functional
Cutibacterium acnes = assay: Antimicrobial activity against Propionibacterium acnes by Wadsworth agar dilution method; type: functional
Clostridioides difficile = assay: Antimicrobial activity against Clostridium difficile by Wadsworth agar dilution method; type: functional
Clostridium cadaveris = assay: Antimicrobial activity against Clostridium cadaveris by Wadsworth agar dilution method; type: functional
Hoylesella loescheii = assay: Antimicrobial activity against Prevotella loescheii by Wadsworth agar dilution method; type: functional
Clostridium leptum = assay: Antimicrobial activity against Clostridium leptum by Wadsworth agar dilution method; type: functional
Clostridium scindens = assay: Antimicrobial activity against Clostridium scindens by Wadsworth agar dilution method; type: functional
Peptoniphilus harei = assay: Antimicrobial activity against Peptoniphilus harei by Wadsworth agar dilution method; type: functional
Ruminococcus lactaris = assay: Antimicrobial activity against Ruminococcus lactaris by Wadsworth agar dilution method; type: functional
Fusobacterium nucleatum = assay: Antimicrobial activity against Fusobacterium nucleatum by Wadsworth agar dilution method; type: functional
Tissierella praeacuta = assay: Antimicrobial activity against Clostridium hastiforme by Wadsworth agar dilution method; type: functional
Clostridium tertium = assay: Antimicrobial activity against Clostridium tertium by Wadsworth agar dilution method; type: functional
Clostridium subterminale = assay: Antimicrobial activity against Clostridium subterminale by Wadsworth agar dilution method; type: functional
[5] = tested on: Lactiplantibacillus plantarum; assay: Antimicrobial activity against Lactobacillus plantarum by Wadsworth agar dilution method; type: functional
[6] = tested on: Propionibacterium propionicum; assay: Antimicrobial activity against Propionibacterium propionicum by Wadsworth agar dilution method; type: functional; conditions: Arachnia propionica
Eggerthella lenta = assay: Antimicrobial activity against Eggerthella lenta by Wadsworth agar dilution method; type: functional
Eubacterium rectale = assay: Antimicrobial activity against Eubacterium rectale by Wadsworth agar dilution method; type: functional; conditions: Agathobacter rectalis
[7] = tested on: Limosilactobacillus reuteri; assay: Antimicrobial activity against Lactobacillus reuteri by Wadsworth agar dilution method; type: functional
Schaalia meyeri = assay: Antimicrobial activity against Actinomyces meyeri by Wadsworth agar dilution method; type: functional
Clostridium butyricum = assay: Antimicrobial activity against Clostridium butyricum by Wadsworth agar dilution method; type: functional
Bacteroides uniformis = assay: Antimicrobial activity against Bacteroides uniformis by Wadsworth agar dilution method; type: functional
Bacteroides caccae = assay: Antimicrobial activity against Bacteroides caccae by Wadsworth agar dilution method; type: functional
Collinsella aerofaciens = assay: Antimicrobial activity against Colinsella aerofaciens by Wadsworth agar dilution method; type: functional
Clostridium perfringens = assay: Antimicrobial activity against Clostridium perfringens by Wadsworth agar dilution method; type: functional
Lactobacillus jensenii = assay: Antimicrobial activity against Lactobacillus jensenii by Wadsworth agar dilution method; type: functional
Desulfovibrio vulgaris = assay: Antimicrobial activity against Desulfovibrio vulgaris by Wadsworth agar dilution method; type: functional; conditions: Nitratidesulfovibrio vulgaris
[8] = tested on: Coprobacillus cateniformis; assay: Antimicrobial activity against Coprobacillus cateniformis by Wadsworth agar dilution method; type: functional
[9] = tested on: Enterocloster clostridioformis; assay: Antimicrobial activity against Clostridium clostridioforme by Wadsworth agar dilution method; type: functional
Clostridium disporicum = assay: Antimicrobial activity against Clostridium disporicum by Wadsworth agar dilution method; type: functional
[10] = tested on: Clostridium lactatifermentans; assay: Antimicrobial activity against Clostridium lactatifermentans by Wadsworth agar dilution method; type: functional; conditions: Anaerotignum lactatifermentans
Fusobacterium varium = assay: Antimicrobial activity against Fusobacterium varium by Wadsworth agar dilution method; type: functional
Blautia luti = assay: Antimicrobial activity against Ruminococcus luti by Wadsworth agar dilution method; type: functional
Prevotella intermedia = assay: Antimicrobial activity against Prevotella intermedia by Wadsworth agar dilution method; type: functional
Clostridium sp. = assay: Antimicrobial activity against Clostridium sp. by Wadsworth agar dilution method; type: functional
[11] = tested on: Bifidobacterium adolescentis; assay: Antimicrobial activity against Bifidobacterium adolescentis by Wadsworth agar dilution method; type: functional
Parabacteroides merdae = assay: Antimicrobial activity against Parabacteroides merdae by Wadsworth agar dilution method; type: functional
[12] = tested on: Bacteroides thetaiotaomicron; assay: Antimicrobial activity against Bacteroides thetaiotaomicron by Wadsworth agar dilution method; type: functional
Flavonifractor plautii = assay: Antimicrobial activity against Clostridium orbiscindens by Wadsworth agar dilution method; type: functional

Structure (SMILES): CC(=O)Oc1ccccc1C(=O)Nc1ncc([N+](=O)[O-])s1 [NITAZOXANIDE]
- MIC50 [1]: 0.5 µg/mL (≈ 1.63 µM)
- MIC90 [1]: 1 µg/mL (≈ 3.25 µM)
- MIC50 (Bifidobacterium dentium): 2 µg/mL (≈ 6.51 µM)
- MIC90 (Bifidobacterium dentium): 32 µg/mL (≈ 104 µM)
- MIC50 (Clostridium septicum): 0.5 µg/mL (≈ 1.63 µM)
- MIC90 (Clostridium septicum): 4 µg/mL (≈ 13 µM)
- MIC50 [2]: 2 µg/mL (≈ 6.51 µM)
- MIC90 [2]: 32 µg/mL (≈ 104 µM)
- MIC50 (Clostridium hathewayi): 0.5 µg/mL (≈ 1.63 µM)
- MIC90 (Clostridium hathewayi): 0.5 µg/mL (≈ 1.63 µM)
- MIC50 [3]: 2 µg/mL (≈ 6.51 µM)
- MIC90 [3]: 32 µg/mL (≈ 104 µM)
- MIC50 [4]: 1 µg/mL (≈ 3.25 µM)
- MIC90 [4]: 4 µg/mL (≈ 13 µM)
- MIC50 (Bacteroides ovatus): 2 µg/mL (≈ 6.51 µM)
- MIC90 (Bacteroides ovatus): 4 µg/mL (≈ 13 µM)
- MIC50 (Eubacterium biforme): 2 µg/mL (≈ 6.51 µM)
- MIC90 (Eubacterium biforme): 32 µg/mL (≈ 104 µM)
- MIC50 (Parvimonas micra): 0.5 µg/mL (≈ 1.63 µM)
- MIC90 (Parvimonas micra): 1 µg/mL (≈ 3.25 µM)
- MIC50 (Holdemania filiformis): 2 µg/mL (≈ 6.51 µM)
- MIC90 (Holdemania filiformis): 32 µg/mL (≈ 104 µM)
- MIC50 (Cutibacterium acnes): 2 µg/mL (≈ 6.51 µM)
- MIC90 (Cutibacterium acnes): 32 µg/mL (≈ 104 µM)
- MIC (Clostridioides difficile): 0.25 µg/mL (≈ 0.814 µM)
- MIC50 (Clostridioides difficile): 0.25 µg/mL (≈ 0.814 µM)
- MIC90 (Clostridioides difficile): 0.5 µg/mL (≈ 1.63 µM)
- MIC50 (Clostridium cadaveris): 0.5 µg/mL (≈ 1.63 µM)
- MIC90 (Clostridium cadaveris): 4 µg/mL (≈ 13 µM)
- MIC50 (Hoylesella loescheii): 4 µg/mL (≈ 13 µM)
- MIC90 (Hoylesella loescheii): 8 µg/mL (≈ 26 µM)
- MIC50 (Clostridium leptum): 0.5 µg/mL (≈ 1.63 µM)
- MIC90 (Clostridium leptum): 4 µg/mL (≈ 13 µM)
- MIC50 (Clostridium scindens): 0.5 µg/mL (≈ 1.63 µM)
- MIC90 (Clostridium scindens): 4 µg/mL (≈ 13 µM)
- MIC50 (Peptoniphilus harei): 0.5 µg/mL (≈ 1.63 µM)
- MIC90 (Peptoniphilus harei): 1 µg/mL (≈ 3.25 µM)
- MIC50 (Ruminococcus lactaris): 0.5 µg/mL (≈ 1.63 µM)
- MIC90 (Ruminococcus lactaris): 1 µg/mL (≈ 3.25 µM)
- MIC (Fusobacterium nucleatum): 0.25 µg/mL (≈ 0.814 µM)
- MIC50 (Fusobacterium nucleatum): 0.25 µg/mL (≈ 0.814 µM)
- MIC90 (Fusobacterium nucleatum): 0.5 µg/mL (≈ 1.63 µM)
- MIC50 (Tissierella praeacuta): 0.5 µg/mL (≈ 1.63 µM)
- MIC90 (Tissierella praeacuta): 4 µg/mL (≈ 13 µM)
- MIC50 (Clostridium tertium): 0.5 µg/mL (≈ 1.63 µM)
- MIC90 (Clostridium tertium): 4 µg/mL (≈ 13 µM)
- MIC50 (Clostridium subterminale): 0.5 µg/mL (≈ 1.63 µM)
- MIC90 (Clostridium subterminale): 4 µg/mL (≈ 13 µM)
- MIC50 [5]: 2 µg/mL (≈ 6.51 µM)
- MIC90 [5]: 32 µg/mL (≈ 104 µM)
- MIC50 [6]: 2 µg/mL (≈ 6.51 µM)
- MIC90 [6]: 32 µg/mL (≈ 104 µM)
- MIC50 (Eggerthella lenta): 2 µg/mL (≈ 6.51 µM)
- MIC90 (Eggerthella lenta): 32 µg/mL (≈ 104 µM)
- MIC50 (Eubacterium rectale): 2 µg/mL (≈ 6.51 µM)
- MIC90 (Eubacterium rectale): 32 µg/mL (≈ 104 µM)
- MIC50 [7]: 2 µg/mL (≈ 6.51 µM)
- MIC90 [7]: 32 µg/mL (≈ 104 µM)
- MIC50 (Schaalia meyeri): 2 µg/mL (≈ 6.51 µM)
- MIC90 (Schaalia meyeri): 32 µg/mL (≈ 104 µM)
- MIC50 (Clostridium butyricum): 0.5 µg/mL (≈ 1.63 µM)
- MIC90 (Clostridium butyricum): 4 µg/mL (≈ 13 µM)
- MIC50 (Bacteroides uniformis): 4 µg/mL (≈ 13 µM)
- MIC90 (Bacteroides uniformis): 4 µg/mL (≈ 13 µM)
- MIC50 (Bacteroides caccae): 2 µg/mL (≈ 6.51 µM)
- MIC90 (Bacteroides caccae): 4 µg/mL (≈ 13 µM)
- MIC50 (Collinsella aerofaciens): 2 µg/mL (≈ 6.51 µM)
- MIC90 (Collinsella aerofaciens): 32 µg/mL (≈ 104 µM)
- MIC50 (Clostridium perfringens): 2 µg/mL (≈ 6.51 µM)
- MIC90 (Clostridium perfringens): 4 µg/mL (≈ 13 µM)
- MIC50 (Lactobacillus jensenii): 2 µg/mL (≈ 6.51 µM)
- MIC90 (Lactobacillus jensenii): 32 µg/mL (≈ 104 µM)
- MIC50 (Desulfovibrio vulgaris): 1 µg/mL (≈ 3.25 µM)
- MIC90 (Desulfovibrio vulgaris): 4 µg/mL (≈ 13 µM)
- MIC50 [8]: 2 µg/mL (≈ 6.51 µM)
- MIC90 [8]: 32 µg/mL (≈ 104 µM)
- MIC50 [9]: 0.25 µg/mL (≈ 0.814 µM)
- MIC90 [9]: 0.25 µg/mL (≈ 0.814 µM)
- MIC50 (Clostridium disporicum): 0.5 µg/mL (≈ 1.63 µM)
- MIC90 (Clostridium disporicum): 4 µg/mL (≈ 13 µM)
- MIC50 [10]: 0.5 µg/mL (≈ 1.63 µM)
- MIC90 [10]: 4 µg/mL (≈ 13 µM)
- MIC50 (Fusobacterium varium): 1 µg/mL (≈ 3.25 µM)
- MIC90 (Fusobacterium varium): 8 µg/mL (≈ 26 µM)
- MIC50 (Blautia luti): 0.5 µg/mL (≈ 1.63 µM)
- MIC90 (Blautia luti): 1 µg/mL (≈ 3.25 µM)
- MIC50 (Prevotella intermedia): 4 µg/mL (≈ 13 µM)
- MIC90 (Prevotella intermedia): 8 µg/mL (≈ 26 µM)
- MIC50 (Clostridium sp.): 0.5 µg/mL (≈ 1.63 µM)
- MIC90 (Clostridium sp.): 4 µg/mL (≈ 13 µM)
- MIC50 [11]: 2 µg/mL (≈ 6.51 µM)
- MIC90 [11]: 32 µg/mL (≈ 104 µM)
- MIC50 (Parabacteroides merdae): 4 µg/mL (≈ 13 µM)
- MIC90 (Parabacteroides merdae): 4 µg/mL (≈ 13 µM)
- MIC50 [12]: 2 µg/mL (≈ 6.51 µM)
- MIC90 [12]: 8 µg/mL (≈ 26 µM)
- MIC (Flavonifractor plautii): 0.25 µg/mL (≈ 0.814 µM)
- MIC50 (Flavonifractor plautii): 0.25 µg/mL (≈ 0.814 µM)
- MIC90 (Flavonifractor plautii): 0.5 µg/mL (≈ 1.63 µM)
